According to patent US20180282331A1, “7-Oxo -6-(sulfooxy)- 1,6-diazabicyclo [3.2.1] octane containing compounds and their use in treatment of bacterial infections (changed by PCT to: 7-OXO -6-(SULFOOXY)- 1,6-DIAZABICYCLO [3.2.1] OCTANE CONTAINING COMPOUNDS AND THEIR USE IN TREATMENT OF BACTERIAL INFECTIONS” (WOCKHARDT LIMITED, priority 2015, published 2018):
Where two headings read alike, the source gives them in different places.

Columns and labels:
Assay in all cases: MIC, agar dilution (MHA), compound alone
Assay type in all cases: cell-based
E. coli M 50 = details: E. coli M 50, compound alone, MHA, 35° C., 18 hours
Procedure: (§1) The biological activity of representative compounds according to the invention against various bacterial strains was investigated. The Minimum Inhibitory Concentration (MIC) determination for the combinations was carried out in Muller Hinton Agar (MHA) (BD, USA) according to Clinical and Laboratory Standards Institute (CLSI) recommendations, (Clinical and Laboratory Standards Institute (CLSI), Performance Standards for Antimicrobial Susceptibility Testing, 20th Informational Supplement, M 100-S20, Volume 30, No. 1, 2010). In short, the test strains were adjusted to deliver about 10^4 CFU per spot with a multipoint inoculator (Applied Quality Services, UK). The plates were poured with MHA containing doubling concentration range of representative compounds according to present invention. The plates were inoculated and were incubated at 35° C. for 18 hours. […] The Table 5 depicts the antibacterial activity profile of compounds according to present invention against various multidrug resistant bacterial strains.

K. pneumoniae H525 = details: K. pneumoniae H525, compound alone, MHA, 35° C., 18 hours
Procedure: as §1

[1] = tested on: K. pneumoniae ATCC 700603; details: K. pneumoniae ATCC 700603, compound alone, MHA, 35° C., 18 hours
Procedure: as §1

K. pneumoniae H521 = details: K. pneumoniae H521, compound alone, MHA, 35° C., 18 hours
Procedure: as §1

E. coli NCTC 13353 = details: E. coli NCTC 13353, compound alone, MHA, 35° C., 18 hours
Procedure: as §1

E. coli NCTC 13352 = details: E. coli NCTC 13352, compound alone, MHA, 35° C., 18 hours
Procedure: as §1

E. coli 7 MP = details: E. coli 7 MP, compound alone, MHA, 35° C., 18 hours
Procedure: as §1

[2] = Escherichia coli, M50, read-out: MIC
[3] = Klebsiella pneumoniae, read-out: MIC
[4] = Klebsiella pneumoniae, ATCC700603, read-out: MIC
[5] = Escherichia coli, NCTC13353, read-out: MIC
[6] = Escherichia coli, NCTC13352, read-out: MIC
[7] = Escherichia coli, read-out: MIC

| SMILES | MIC (E. coli M 50; [2]) [µg/mL] | MIC (K. pneumoniae H525; [3]) [µg/mL] | MIC [1, 4] [µg/mL] | MIC (K. pneumoniae H521; [3]) [µg/mL] | MIC (E. coli NCTC 13353; [5]) [µg/mL] | MIC (E. coli NCTC 13352; [6]) [µg/mL] | MIC (E. coli 7 MP; [7]) [µg/mL] | MIC (E. coli M 50) [µg/mL] | MIC (K. pneumoniae H525) [µg/mL] | MIC [1] [µg/mL] | MIC (K. pneumoniae H521) [µg/mL] | MIC (E. coli NCTC 13353) [µg/mL] | MIC (E. coli NCTC 13352) [µg/mL] | MIC (E. coli 7 MP) [µg/mL] |
| --- | --- | --- | --- | --- | --- | --- | --- | --- | --- | --- | --- | --- | --- | --- |
| CO/N=C(\C(=O)N[C@@H]1C(=O)N2C(C(=O)[O-])=C(C[N+]3(C)CCCC3)CS[C@H]12)c1csc(N)n1 [Cefepime, reference compound] | > 32 | 32 | 0.5 | 32 | 32 | 4 | 16 |  |  |  |  |  |  |  |
| O=C(Cn1ccnc1)NNC(=O)[C@@H]1CC[C@@H]2CN1C(=O)N2OS(=O)(=O)O.[Na] [Example 2, Sodium salt of (2S,5R)-N′-(1H-imidazol-1-ylacetyl)-7-oxo-6-(sulfooxy)-1,6-diazabicyclo[3.2.1]octane-2-carbohydrazide] |  |  |  |  |  |  |  | 0.5 | 1 | >32 | 1 | 0.25 | 0.5 | 1 |
| O=C(Cn1ncnn1)NNC(=O)[C@@H]1CC[C@@H]2CN1C(=O)N2OS(=O)(=O)[O-].[Na+] [Example 4] | 0.5 | 1 | > 32 | 1 | 0.5 | 0.5 | 1 |  |  |  |  |  |  |  |
| CCOC(=O)c1nnnn1CC(=O)NNC(=O)[C@@H]1CC[C@@H]2CN1C(=O)N2OS(=O)(=O)[O-].[Na+] [Example 5] | 1 | 2 | > 32 | 2 | 0.5 | 0.5 | 2 |  |  |  |  |  |  |  |
| O=C(Cn1nccn1)NNC(=O)[C@@H]1CC[C@@H]2CN1C(=O)N2OS(=O)(=O)[O-].[Na+] [Example 6] | 1 | 2 | > 32 | 2 | 1 | 1 | 2 |  |  |  |  |  |  |  |
| O=C(Cn1ccnn1)NNC(=O)[C@@H]1CC[C@@H]2CN1C(=O)N2OS(=O)(=O)[O-].[Na+] [Example 7] | 0.5 | 1 | > 32 | 1 | 0.5 | 0.5 | 1 |  |  |  |  |  |  |  |
| O=C(Cn1cncn1)NNC(=O)[C@@H]1CC[C@@H]2CN1C(=O)N2OS(=O)(=O)[O-].[Na+] [Example 8] | 0.5 | 1 | > 32 | 1 | 0.5 | 0.5 | 2 |  |  |  |  |  |  |  |
| Cc1nnnn1CC(=O)NNC(=O)[C@@H]1CC[C@@H]2CN1C(=O)N2OS(=O)(=O)[O-].[Na+] [Example 9] | 0.25 | 1 | > 32 | 4 | 0.25 | 0.5 | 1 |  |  |  |  |  |  |  |
| O=C(Cn1cccn1)NNC(=O)[C@@H]1CC[C@@H]2CN1C(=O)N2OS(=O)(=O)[O-].[Na+] [Example 11] | 1 | > 32 | > 32 | 32 | 1 | 1 | 4 |  |  |  |  |  |  |  |
| CCOC(=O)Cc1nnnn1CC(=O)NNC(=O)[C@@H]1CC[C@@H]2CN1C(=O)N2OS(=O)(=O)[O-].[Na+] [Example 12] | 2 | 4 | > 32 | 4 | 1 | 0.5 | 2 |  |  |  |  |  |  |  |
| CCOC(=O)Cc1nnn(CC(=O)NNC(=O)[C@@H]2CC[C@@H]3CN2C(=O)N3OS(=O)(=O)[O-])n1.[Na+] [Example 13] | 2 | 32 | > 32 | 32 | 1 | 1 | 2 |  |  |  |  |  |  |  |
| NC(=O)Cc1nnn(CC(=O)NNC(=O)[C@@H]2CC[C@@H]3CN2C(=O)N3OS(=O)(=O)[O-])n1.[Na+] [Example 14] | 0.5 | 4 | > 32 | 4 | 1 | 1 | 1 |  |  |  |  |  |  |  |
| NC(=O)Cc1nnnn1CC(=O)NNC(=O)[C@@H]1CC[C@@H]2CN1C(=O)N2OS(=O)(=O)[O-].[Na+] [Example 15] | 0.5 | 2 | > 32 | 2 | 0.5 | 0.5 | 1 |  |  |  |  |  |  |  |
| NC(=O)c1nnn(CC(=O)NNC(=O)[C@@H]2CC[C@@H]3CN2C(=O)N3OS(=O)(=O)[O-])n1.[Na+] [Example 16] | 1 | 2 | > 32 | 2 | 1 | 1 | 2 |  |  |  |  |  |  |  |
| NC(=O)c1nnnn1CC(=O)NNC(=O)[C@@H]1CC[C@@H]2CN1C(=O)N2OS(=O)(=O)[O-].[Na+] [Example 17] | 0.25 | 1 | > 32 | 1 | 0.25 | 0.25 | 0.5 |  |  |  |  |  |  |  |
| O=C(Cn1cccc1)NNC(=O)[C@@H]1CC[C@@H]2CN1C(=O)N2OS(=O)(=O)[O-].[Na+] [Example 18] | 0.5 | 1 | > 32 | 1 | 0.25 | 0.5 | 1 |  |  |  |  |  |  |  |
| C[C@@H](C(=O)NNC(=O)[C@@H]1CC[C@@H]2CN1C(=O)N2OS(=O)(=O)[O-])n1ccnc1.[Na+] [Example 20] | 0.5 | 2 | > 32 | 2 | 0.5 | 0.5 | 1 |  |  |  |  |  |  |  |
| CCOC(=O)c1nccn1CC(=O)NNC(=O)[C@@H]1CC[C@@H]2CN1C(=O)N2OS(=O)(=O)[O-].[Na+] [Example 21] | 2 | 8 | > 32 | 8 | 2 | 2 | 4 |  |  |  |  |  |  |  |
| Nc1nnnn1CC(=O)NNC(=O)[C@@H]1CC[C@@H]2CN1C(=O)N2OS(=O)(=O)O [Example 24, (2S,5R)-N′-[(5-amino-1H-tetrazol-1-yl)acetyl]-7-oxo-6-(sulfooxy)-1,6-diazabicyclo[3.2.1]octane-2-carbohydrazide] | 0.5 | 2 | > 32 | 2 | 0.5 | 1 | 2 |  |  |  |  |  |  |  |
| NCc1nnnn1CC(=O)NNC(=O)[C@@H]1CC[C@@H]2CN1C(=O)N2OS(=O)(=O)O [Example 25] | 0.5 | 1 | > 32 | 1 | 1 | 1 | 2 |  |  |  |  |  |  |  |
| NCc1nnn(CC(=O)NNC(=O)[C@@H]2CC[C@@H]3CN2C(=O)N3OS(=O)(=O)O)n1 [Example 26] | 0.5 | 1 | > 32 | 1 | 0.5 | 0.5 | 1 |  |  |  |  |  |  |  |
| Nc1ncn(CC(=O)NNC(=O)[C@@H]2CC[C@@H]3CN2C(=O)N3OS(=O)(=O)O)n1 [Example 27] | 1 | 2 | > 32 | 2 | 1 | 1 | 2 |  |  |  |  |  |  |  |
| NCCc1nnn(CC(=O)NNC(=O)[C@@H]2CC[C@@H]3CN2C(=O)N3OS(=O)(=O)O)n1 [Example 28] | 0.25 | 0.5 | > 32 | 0.5 | 0.25 | 0.5 | 1 |  |  |  |  |  |  |  |
| NCCCc1nnn(CC(=O)NNC(=O)[C@@H]2CC[C@@H]3CN2C(=O)N3OS(=O)(=O)O)n1 [Example 30] | 0.5 | 0.5 | > 32 | 0.5 | 0.25 | 0.5 | 1 |  |  |  |  |  |  |  |
